# Data: patent US20240368174A1, “Antiviral Heterocyclic Compounds” (Enanta Pharmaceuticals, Inc., priority 2023, published 2024)
# pEC50: −log10 of the molar value.
# Test system: HMPV clinical isolate A2 strain TN 94-49
# Experiment: HMPV antiviral assay, Method 2 (LLC-MK2 cells with CP-100-356, ATP-Lite)
# Assay type: cell-based
# Settings: human metapneumovirus, 168 h; hMPV A2 TN/94-49, LLC-MK2 cells with 4 μM CP-100-356, 7 days, ATP-Lite
# Method in brief: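 EC50 comes from a four-parameter fit of percent cell viability (ATP-Lite, normalized to virus-only and cell-only wells) after 7 days at 37 °C. Infection used HMPV A2 TN 94-49 at MOI 0.16 in LLC-MK2 cells, with 2 μM P-gp inhibitor CP-100-356 and 2 μg/mL TPCK-trypsin final; dose range 200 nM top, 2.5-fold, 10 points, duplicate.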
row,pEC50,SMILES
1,> 6.70,COc1cc(C(=O)NC[C@@](O)(c2ccccc2)c2cc3c(c(-n4ncc5c(F)cccc54)n2)OC[C@]3(C)C(N)=O)cn2cc(C3CC3)nc12 [Example 634]
2,> 6.70,COc1cc(-c2nc([C@@](O)(CNC(=O)c3cc(OC)c4nc(C5CC5)oc4c3)c3ccccc3)cc3c2OC[C@]3(C)C(N)=O)c(F)cn1 [Example 638]

# Continued, compound first:
row,SMILES,pEC50
1,COc1cc(C(=O)NC[C@](O)(c2cc3c(c(-c4cccc(F)c4Cl)n2)OC[C@]3(C)C(N)=O)C2(F)CC2)cc2cn(C3CC3)nc12 [Example 617],> 6.70
2,COc1cc(C(=O)NC[C@](O)(c2cc3c(c(-n4ncc5c(F)cccc54)n2)OC[C@]3(C)C(N)=O)C2CC2)cc2cc(C3CC3)nn12 [Example 626],> 6.70
3,COc1cc(C(=O)NC[C@](O)(c2cc3c(c(-c4cccc(F)c4Cl)n2)OC[C@]3(C)C(N)=O)C2CC2)cc2cc(C3CC3)nn12 [Example 632],> 6.70
4,COc1cc(C(=O)NC[C@@](O)(c2ccccc2)c2cc3c(c(-n4ncc5c(F)cccc54)n2)OC[C@]3(C)C(N)=O)cc2sc(N)nc12 [Example 633],< 6.70
5,COc1cc(-c2nc([C@@](O)(CNC(=O)c3cc(OC)c4nn(C5CC5)cc4c3)c3ccccc3)cc3c2OC[C@]3(C)C(N)=O)c(F)cn1 [Example 635],> 6.70
6,COc1cc(C(=O)NC[C@@](O)(c2ccccc2)c2cc3c(c(-n4ncc5c(F)cccc54)n2)OC[C@]3(C)C(N)=O)cc2cn(C(F)F)nc12 [Example 636],> 6.70
7,[2H]C([2H])([2H])c1nc2c(OC)cc(C(=O)NC[C@@](O)(c3ccccc3)c3cc4c(c(-n5ncc6c(F)cccc65)n3)OC[C@]4(C)C(N)=O)cc2s1 [Example 637],> 6.70
8,COc1cc(-c2nc([C@@](O)(CNC(=O)c3cc(OC)n4nc(C5CC5)cc4c3)c3ccccc3)cc3c2OC[C@]3(C)C(N)=O)c(F)cn1 [Example 639],> 6.70

# Same assay, conditions: human metapneumovirus; hMPV A2 TN/94-49, LLC-MK2 cells with CP-100-356, Method 2
row,pEC50,SMILES
1,> 6.70,COc1cc(C(=O)NC[C@@](O)(c2ccc(F)cc2)c2cc3c(c(-c4ccnc(C(F)(F)F)c4F)n2)OC[C@]3(C)C(N)=O)cc2cn(C(F)F)nc12 [Example 572]
2,> 6.70,COc1cc(C(=O)NC[C@@](O)(c2ccc(F)cc2)c2cc3c(c(-c4ccnc(C(F)(F)F)c4F)n2)OC[C@]3(C)C(N)=O)cc2cn(C3(F)CC3)nc12 [Example 573]
3,> 6.70,COc1cc(C(=O)NC[C@@](O)(c2ccc(F)cc2)c2cc3c(c(-c4ccnc(C(F)(F)F)c4F)n2)OC[C@]3(C)C(N)=O)cc2oc(C3CC3)nc12 [Example 574]
4,> 6.70,COc1cc(C(=O)NC[C@](O)(c2cc3c(c(-c4ccnc(C(F)(F)F)c4Cl)n2)OC[C@]3(C)C(N)=O)C2CC2)cn2cc(C3CC3)nc12 [Example 580]
5,> 6.70,COc1nccc(-c2nc([C@@](O)(CNC(=O)c3cc(OC)c4nc(C5CC5)cn4c3)C3CC3)cc3c2OC[C@]3(C)C(N)=O)c1Cl [Example 583]
6,> 6.70,COc1nccc(-c2nc([C@@](O)(CNC(=O)c3cc(OC4CC4)c4nn(C5CC5)cc4c3)C(F)(F)F)cc3c2OC[C@]3(C)C(N)=O)c1Cl [Example 586]
7,> 6.70,COc1nccc(-c2nc([C@@](O)(CNC(=O)c3cc(OC4CC4)c4nn(C5(F)CC5)cc4c3)C(F)(F)F)cc3c2OC[C@]3(C)C(N)=O)c1Cl [Example 588]
8,> 6.70,COc1nccc(-c2nc([C@@](O)(CNC(=O)c3cc(OC)n4nc(C5CC5)cc4c3)C(F)(F)F)cc3c2OC[C@]3(C)C(N)=O)c1Cl [Example 590]
9,> 6.70,COc1nccc(-c2nc([C@@](O)(CNC(=O)c3cc(OC4CC4)c4nn(C(F)F)cc4c3)C3CC3)cc3c2OC[C@]3(C)C(N)=O)c1Cl [Example 591]
10,> 6.70,COc1nccc(-c2nc([C@@](O)(CNC(=O)c3cc(OC4CC4)c4nn(C5(F)CC5)cc4c3)C3CC3)cc3c2OC[C@]3(C)C(N)=O)c1Cl [Example 592]
11,> 6.70,C[C@]1(C(N)=O)COc2c1cc([C@@](O)(CNC(=O)c1cc(OC3CC3)c3nn(C(F)F)cc3c1)C(F)(F)F)nc2-c1ccnc(C(F)(F)F)c1Cl [Example 594]
12,> 6.70,C[C@]1(C(N)=O)COc2c1cc([C@@](O)(CNC(=O)c1cc(OC3CC3)c3nn(C4(F)CC4)cc3c1)C(F)(F)F)nc2-c1ccnc(C(F)(F)F)c1Cl [Example 595]
13,> 6.70,COc1cc(C(=O)NC[C@](O)(c2cc3c(c(-c4ccnc(C(F)(F)F)c4Cl)n2)OC[C@]3(C)C(N)=O)C(F)(F)F)cc2oc(C(F)F)nc12 [Example 597]
14,> 6.70,COc1cc(C(=O)NC[C@](O)(c2cc3c(c(-c4ccnc(C(F)(F)F)c4Cl)n2)OC[C@]3(C)C(N)=O)C(F)(F)F)cn2cc(C3CC3)nc12 [Example 598]
15,> 6.70,Cc1nccc(-c2nc([C@@](O)(CNC(=O)c3cc(OC4CC4)c4nn(C5CC5)cc4c3)C3CC3)cc3c2OC[C@]3(C)C(N)=O)c1Cl [Example 600]
16,> 6.70,Cc1nccc(-c2nc([C@@](O)(CNC(=O)c3cc(OC4CC4)c4nn(C(F)F)cc4c3)C3CC3)cc3c2OC[C@]3(C)C(N)=O)c1Cl [Example 601]

# Further lines, the compound ahead of its results:
row,SMILES,pEC50
1,COc1cc(C(=O)NC[C@@](O)(c2ccc(F)cc2)c2cc3c(c(-c4ccnc(C(F)F)c4Cl)n2)OC[C@]3(C)C(N)=O)cc2cn(C3(F)CC3)nc12 [Example 570],> 6.70
2,COc1cc(C(=O)NC[C@@](O)(c2ccc(F)cc2)c2cc3c(c(-c4ccnc(C(F)(F)F)c4F)n2)OC[C@]3(C)C(N)=O)cc2cn(C3CC3)nc12 [Example 571],> 6.70
3,COc1cc(C(=O)NC[C@](O)(c2cc3c(c(-c4ccnc(Cl)c4Cl)n2)OC[C@]3(C)C(N)=O)C2CC2)cn2cc(C3CC3)nc12 [Example 578],> 6.70
4,COc1nccc(-c2nc([C@@](O)(CNC(=O)c3cc(OC4CC4)c4nn(C(F)F)cc4c3)C(F)(F)F)cc3c2OC[C@]3(C)C(N)=O)c1Cl [Example 587],> 6.70
5,COc1nccc(-c2nc([C@@](O)(CNC(=O)c3cc(OC)c4nc(C5CC5)cn4c3)C(F)(F)F)cc3c2OC[C@]3(C)C(N)=O)c1Cl [Example 589],> 6.70
6,C[C@]1(C(N)=O)COc2c1cc([C@@](O)(CNC(=O)c1cc(OC3CC3)c3nn(C4CC4)cc3c1)C(F)(F)F)nc2-c1ccnc(C(F)(F)F)c1Cl [Example 593],> 6.70
7,COc1cc(C(=O)NC[C@](O)(c2cc3c(c(-c4ccnc(C(F)(F)F)c4Cl)n2)OC[C@]3(C)C(N)=O)C(F)(F)F)cc2cc(C3CC3)nn12 [Example 596],> 6.70
8,Cc1nccc(-c2nc([C@@](O)(CNC(=O)c3cc(OC4CC4)c4nn(C5(F)CC5)cc4c3)C3CC3)cc3c2OC[C@]3(C)C(N)=O)c1Cl [Example 602],> 6.70
9,Cc1nccc(-c2nc([C@@](O)(CNC(=O)c3cc(OC4CC4)c4nn(C5CC5)cc4c3)c3cccc(F)c3)cc3c2OC[C@]3(C)C(N)=O)c1Cl [Example 603],> 6.70
10,Cc1nccc(-c2nc([C@@](O)(CNC(=O)c3cc(OC4CC4)c4nn(C(F)F)cc4c3)c3cccc(F)c3)cc3c2OC[C@]3(C)C(N)=O)c1Cl [Example 604],> 6.70
11,Cc1nccc(-c2nc([C@@](O)(CNC(=O)c3cc(OC4CC4)c4nn(C5(F)CC5)cc4c3)c3cccc(F)c3)cc3c2OC[C@]3(C)C(N)=O)c1Cl [Example 605],> 6.70
12,COc1nccc(-c2nc([C@@](O)(CNC(=O)c3cc(OC4CC4)n4nc(C5CC5)cc4c3)C3CC3)cc3c2OC[C@]3(C)C(N)=O)c1Cl [Example 606],> 6.70
13,COc1nccc(-c2nc([C@@](O)(CNC(=O)c3cc(OC4CC4)n4nc(C5CC5)cc4c3)C(F)(F)F)cc3c2OC[C@]3(C)C(N)=O)c1Cl [Example 607],> 6.70
